Measured values published in publication PMC9128828 (Nature medicine, 2021).

Assays:
advanced solid tumors = experiment: Anti-tumor activity per RECIST v1.1, dose-escalation cohort; assay type: in vivo, human
mouse xenograft models = conditions: cited from earlier work
[1] = previous study; cited from earlier work
[2] = system: previously treated advanced ccRCC; experiment: Anti-tumor activity per RECIST v1.1, ccRCC cohort; assay type: in vivo, human
[3] = Plasma pharmacokinetics of belzutifan, phase 1 study; assay type: in vivo, human
erythropoietin = experiment: Pharmacodynamics: plasma erythropoietin, phase 1 study; assay type: in vivo, human; conditions: all dose levels
[4] = Safety and dose-limiting toxicities, dose-escalation cohort; assay type: in vivo, human
Safety = assay type: in vivo, human; conditions: for All-cause adverse event: Anemia / All-cause adverse event: Any / All-cause adverse event: Arthralgia / All-cause adverse event: Back pain / All-cause adverse event: Blood creatinine increased / All-cause adverse event: Constipation / All-cause adverse event: Cough / All-cause adverse event: Dehydration / All-cause adverse event: Diarrhea / All-cause adverse event: Dizziness / All-cause adverse event: Dyspnea / All-cause adverse event: Edema peripheral / All-cause adverse event: Fatigue / All-cause adverse event: Headache / All-cause adverse event: Hyperkalemia / All-cause adverse event: Hypoxia / All-cause adverse event: Nausea / All-cause adverse event: Vomiting: ccRCC cohort (n = 55)
[5] = RECIST v1.1, ccRCC cohort, n = 55
[6] = ccRCC cohort n = 55, all grade 3

In the case of CS(=O)(=O)c1ccc(Oc2cc(F)cc(C#N)c2)c2c1[C@H](O)[C@H](F)[C@@H]2F [belzutifan, 3-[(1 S,2 S,3 R)-2,3-difluoro-1-hydroxy-7-methylsulfonylindan-4-yl]oxy-5-fluorobenzo nitrile], the “Responses (all partial)” value (advanced solid tumors; 120 mg once daily, one of six patients) is reported as 17%, the “Responses (all partial)” value (advanced solid tumors; 120 mg twice daily, one of six patients) is reported as 17% and the “Responses (all partial)” value (advanced solid tumors; 160 mg once daily, two of six patients) is reported as 33%. The “Median duration of response” value (advanced solid tumors; any dose cohort, patients who had a response) was “not reached”, the “Potency relative to MK-3795” value (mouse xenograft models; mouse xenograft models) was “approximately ten-fold more potent than MK-3795” and the “Exposure to belzutifan, dependence on dose” value [1] was “increased with doses up to 120 mg once daily”. For the same compound, the “Patients with target lesion size reduced from baseline” value ([2]; 35 of 52 patients with baseline and post-baseline imaging) was 67%, the Median progression-free survival ([2]; IMDC favorable risk) was “not reached” and the Complete response [2, 5] was 0 (0) no. (%). The Non-evaluable [2, 5] was 3 (5) no. (%), the Partial response [2, 5] was 14 (25) no. (%) and the Progressive disease [2, 5] was 8 (15) no. (%). For the same compound, the Stable disease [2, 5] was 30 (54) no. (%), the “Median duration of response” value ([2]; ccRCC cohort) was “not reached” and the Disease control rate ([2]; ccRCC cohort n = 55, 120 mg once daily) was 80%. The Objective response rate ([2]; ccRCC cohort n = 55, 120 mg once daily, all partial responses) was 25%, the Median progression-free survival ([2]; ccRCC cohort, 95% CI 7.3–not reached, Kaplan–Meier) was 14.5 months and the “Responders with duration of response ≥6 months” value ([2]; ten of 14 responders) was 71%. The “Dose-normalized area under the concentration curve from time 0 to the end of the dosing period, dependence on dose” value ([3]; 20–240 mg once daily) was “increased with dose from 20 to 120 mg but decreased from 120 to 240 mg once daily”, the Mean accumulation ratio ([3]; 120-mg twice-daily dosing) was 2.4 and the “Increase in maximum concentration” value ([3]; 240-mg once-daily cohort compared to 120-mg once-daily expansion cohort) was 38%. For the same compound, the “Median time to maximum observed plasma concentration” value ([3]; across dose levels, oral) was 1.0 to 2.0 h, the half-life ([3]; human, in vivo, po) was 11.2 to 21.5 h and the Mean accumulation ratio ([3]; once-daily dosing) was 1.3–1.5. For the same compound, the “Change in plasma erythropoietin” value (erythropoietin) was “reductions”, the “Patients with treatment-related dose-limiting toxicity” value ([4]; 120 mg twice daily, one of six patients, grade 3 hypoxia) was 17% and the “Patients with treatment-related dose-limiting toxicity” value ([4]; 240 mg orally, one of seven patients, grade 4 thrombocytopenia) was 14%. For the same compound, the Maximum tolerated dose ([4]; dose-escalation cohort) was “not reached”, the Dose-limiting toxicities ([4]; doses up to 160 mg once daily) was “no dose-limiting toxicities” and the “Patients with anemia who received exogenous erythropoietin” value (Safety; 28 of 42 patients with anemia) was 67%. For the same compound, the “All-cause adverse event: Anemia” value (Safety; All grades or 2) was 42 (76) no. (%), the “All-cause adverse event: Any” value (Safety; All grades or 2) was 55 (100) no. (%) and the “All-cause adverse event: Arthralgia” value (Safety; All grades or 2) was 14 (25) no. (%). For the same compound, the “All-cause adverse event: Back pain” value (Safety; All grades or 2) was 12 (22) no. (%), the “All-cause adverse event: Blood creatinine increased” value (Safety; All grades or 2) was 14 (25) no. (%) and the “All-cause adverse event: Constipation” value (Safety; All grades or 2) was 12 (22) no. (%). The “All-cause adverse event: Cough” value (Safety; All grades or 2) was 17 (31) no. (%), the “All-cause adverse event: Dehydration” value (Safety; All grades or 2) was 11 (20) no. (%) and the “All-cause adverse event: Diarrhea” value (Safety; All grades or 2) was 12 (22) no. (%). For the same compound, the “All-cause adverse event: Dizziness” value (Safety; All grades or 2) was 13 (24) no. (%), the “All-cause adverse event: Dyspnea” value (Safety; All grades or 2) was 27 (49) no. (%) and the “All-cause adverse event: Edema peripheral” value (Safety; All grades or 2) was 15 (27) no. (%). The “All-cause adverse event: Fatigue” value (Safety; All grades or 2) was 39 (71) no. (%), the “All-cause adverse event: Headache” value (Safety; All grades or 2) was 14 (25) no. (%) and the “All-cause adverse event: Hyperkalemia” value (Safety; All grades or 2) was 12 (22) no. (%). For the same compound, the “All-cause adverse event: Hypoxia” value (Safety; All grades or 2) was 17 (31) no. (%), the “All-cause adverse event: Nausea” value (Safety; All grades or 2) was 20 (36) no. (%) and the “All-cause adverse event: Vomiting” value (Safety; All grades or 2) was 16 (29) no. (%). The “All-cause adverse event: Anemia” value (Safety; Grade 1) was 27 (49) no. (%), the “All-cause adverse event: Any” value (Safety; Grade 1) was 16 (29) no. (%) and the “All-cause adverse event: Arthralgia” value (Safety; Grade 1) was 14 (25) no. (%). For the same compound, the “All-cause adverse event: Back pain” value (Safety; Grade 1) was 11 (20) no. (%), the “All-cause adverse event: Blood creatinine increased” value (Safety; Grade 1) was 13 (24) no. (%) and the “All-cause adverse event: Constipation” value (Safety; Grade 1) was 12 (22) no. (%). The “All-cause adverse event: Cough” value (Safety; Grade 1) was 17 (31) no. (%), the “All-cause adverse event: Dehydration” value (Safety; Grade 1) was 10 (18) no. (%) and the “All-cause adverse event: Diarrhea” value (Safety; Grade 1) was 12 (22) no. (%). For the same compound, the “All-cause adverse event: Dizziness” value (Safety; Grade 1) was 13 (24) no. (%), the “All-cause adverse event: Dyspnea” value (Safety; Grade 1) was 24 (44) no. (%) and the “All-cause adverse event: Edema peripheral” value (Safety; Grade 1) was 15 (27) no. (%). The “All-cause adverse event: Fatigue” value (Safety; Grade 1) was 36 (65) no. (%), the “All-cause adverse event: Headache” value (Safety; Grade 1) was 13 (24) no. (%) and the “All-cause adverse event: Hyperkalemia” value (Safety; Grade 1) was 11 (20) no. (%). For the same compound, the “All-cause adverse event: Hypoxia” value (Safety; Grade 1) was 8 (15) no. (%), the “All-cause adverse event: Nausea” value (Safety; Grade 1) was 19 (35) no. (%) and the “All-cause adverse event: Vomiting” value (Safety; Grade 1) was 16 (29) no. (%). For the same compound, the “All-cause adverse event: Anemia” value (Safety; Grade 3) was 15 (27) no. (%), the “All-cause adverse event: Any” value (Safety; Grade 3) was 33 (60) no. (%) and the “All-cause adverse event: Arthralgia” value (Safety; Grade 3) was 0 (0) no. (%). The “All-cause adverse event: Back pain” value (Safety; Grade 3) was 1 (2) no. (%), the “All-cause adverse event: Blood creatinine increased” value (Safety; Grade 3) was 1 (2) no. (%) and the “All-cause adverse event: Constipation” value (Safety; Grade 3) was 0 (0) no. (%). The “All-cause adverse event: Cough” value (Safety; Grade 3) was 0 (0) no. (%), the “All-cause adverse event: Dehydration” value (Safety; Grade 3) was 1 (2) no. (%) and the “All-cause adverse event: Diarrhea” value (Safety; Grade 3) was 0 (0) no. (%). For the same compound, the “All-cause adverse event: Dizziness” value (Safety; Grade 3) was 0 (0) no. (%), the “All-cause adverse event: Dyspnea” value (Safety; Grade 3) was 3 (5) no. (%) and the “All-cause adverse event: Edema peripheral” value (Safety; Grade 3) was 0 (0) no. (%). For the same compound, the “All-cause adverse event: Fatigue” value (Safety; Grade 3) was 3 (5) no. (%), the “All-cause adverse event: Headache” value (Safety; Grade 3) was 1 (2) no. (%) and the “All-cause adverse event: Hyperkalemia” value (Safety; Grade 3) was 1 (2) no. (%). For the same compound, the “All-cause adverse event: Hypoxia” value (Safety; Grade 3) was 9 (16) no. (%), the “All-cause adverse event: Nausea” value (Safety; Grade 3) was 1 (2) no. (%) and the “All-cause adverse event: Vomiting” value (Safety; Grade 3) was 0 (0) no. (%). For the same compound, the “All-cause adverse event: Anemia” value (Safety; Grade 4) was 0 (0) no. (%), the “All-cause adverse event: Any” value (Safety; Grade 4) was 2 (4) no. (%) and the “All-cause adverse event: Arthralgia” value (Safety; Grade 4) was 0 (0) no. (%). For the same compound, the “All-cause adverse event: Back pain” value (Safety; Grade 4) was 0 (0) no. (%), the “All-cause adverse event: Blood creatinine increased” value (Safety; Grade 4) was 0 (0) no. (%) and the “All-cause adverse event: Constipation” value (Safety; Grade 4) was 0 (0) no. (%). The “All-cause adverse event: Cough” value (Safety; Grade 4) was 0 (0) no. (%), the “All-cause adverse event: Dehydration” value (Safety; Grade 4) was 0 (0) no. (%) and the “All-cause adverse event: Diarrhea” value (Safety; Grade 4) was 0 (0) no. (%). For the same compound, the “All-cause adverse event: Dizziness” value (Safety; Grade 4) was 0 (0) no. (%), the “All-cause adverse event: Dyspnea” value (Safety; Grade 4) was 0 (0) no. (%) and the “All-cause adverse event: Edema peripheral” value (Safety; Grade 4) was 0 (0) no. (%). The “All-cause adverse event: Fatigue” value (Safety; Grade 4) was 0 (0) no. (%), the “All-cause adverse event: Headache” value (Safety; Grade 4) was 0 (0) no. (%) and the “All-cause adverse event: Hyperkalemia” value (Safety; Grade 4) was 0 (0) no. (%). The “All-cause adverse event: Hypoxia” value (Safety; Grade 4) was 0 (0) no. (%), the “All-cause adverse event: Nausea” value (Safety; Grade 4) was 0 (0) no. (%) and the “All-cause adverse event: Vomiting” value (Safety; Grade 4) was 0 (0) no. (%). For the same compound, the “Patients requiring dose reductions or discontinuations for anemia” value (Safety; ccRCC cohort) was “No patients”, the “Patients with at least one adverse event” value (Safety; ccRCC cohort) was “All patients” and the “Treatment-related grade 4 or 5 events” value (Safety; ccRCC cohort) was “No treatment-related grade 4 or 5 events occurred”. For the same compound, the “Treatment-related adverse event: anemia” value (Safety; ccRCC cohort n = 55) was 71%, the “Treatment-related adverse event: hypoxia” value (Safety; ccRCC cohort n = 55) was 18% and the “Treatment-related adverse event: nausea” value (Safety; ccRCC cohort n = 55) was 15%. The “Treatment-related adverse event: peripheral edema” value (Safety; ccRCC cohort n = 55) was 16%, the “Grade ≥3 treatment-emergent adverse event: anemia” value (Safety; [6]) was 27% and the “Grade ≥3 treatment-emergent adverse event: hypoxia” value (Safety; [6]) was 16%. For the same compound, the “Patients requiring dose reductions because of treatment-related adverse events” value (Safety; ccRCC cohort, five patients) was 9%, the “Patients who discontinued after treatment-related adverse events” value (Safety; ccRCC cohort, two patients, both hypoxia) was 4% and the “Patients with grade 5 adverse events” value (Safety; ccRCC cohort, disease progression, malignant neoplasm progression, acute kidney injury, cardiac arrest) was “four patients”.
In the case of CS(=O)(=O)c1ccc(Oc2cc(F)cc(C#N)c2)c2c1[C@H](O)C(F)(F)C2 [MK-3795, reference compound], the Tumor regression (mouse xenograft models; xenograft models) is listed as “significant tumor regression”.
